Where “and” joins values, the source holds several entries; their conditions need not be identical. Equal values may be shown once. Entries after “also recorded” stand apart in the source; their conditions may differ. Square brackets hold non-standard residues; d marks the D form. Ends that are not written are not given here.
Experiments:
histamine = experiment: Histamine induced wheal formation, peptide given at time of challenge; assay type: in vivo, Sprague-Dawley rats; settings: 30 μg/kg at time of histamine challenge
Protocol: Under isoflurane anesthesia, 12 Sprague-Dawley rats' abdomens were shaved and depilated. Each rat was then injected intravenously (via internal jugular) with a dilute solution of Evans Blue (30 mg/ml in saline, 1 ml/kg bw). After 5 minutes, 6 small doses of histamine (Histamine diphosphate, 20 microliters administered intradermally) in a rectangular pattern on each rat's abdomen. After fifteen minutes, when the wheal reaches its maximum size the wheal is photographed and the blister area was determined by digital planimetry. To test the efficacy of various peptides, the peptide of interest was administered to the rats intravenously shortly after the histamine injection.
Rats received either saline, Peptide IY (30 μg/kg), Peptide ID (30 μg/kg), or Peptide IW (30 μg/kg) at time of histamine challenge.
Rats received either saline, peptide JA (30 μg/kg), peptide IZ (30 μg/kg), peptide IW (30 μg/kg) or peptide ID (30 μg/kg) at time of histamine challenge.

bilateral renal ischemia = experiment: Bilateral renal ischemia assay; assay type: in vivo, C57/BL6 mice
Protocol: Sixty male C57/BL6 mice (˜25 g; Charles River Laboratories) were anesthetized with ketamine (150 mg/kg) and xylazine (15 mg/kg) i.p. Each animal was placed on a homeothermic blanket set at 37° C., and after a mid-line laparotomy, the renal pedicles were clamped for 30 minutes using nontraumatic vascular clamps. Peptide ID was administered at the indicated dose via i.p. Injection at 1 minute, 6 hours, and 12 hours after reperfusion. In a single dose study, the mice received a control (PBS), 1 μg/kg of Peptide IG at 1 minute, 1 μg/kg of Peptide IG at 30 minutes, 1 μg/kg of Peptide ID at 6 hours, or 10 μg/kg of Peptide ID at 6 hours (12 mice per group). In a multiple dose study, the mice received either multiple doses of a control (PBS), 0.1 μg/kg of Peptide ID, 1 μg/kg of Peptide ID, or 10 μg/kg of Peptide ID at 1 minute, 6 hours and 12 hours into reperfusion.
Twenty-four hours later, mice were reanesthetized and blood was obtained by cardiac puncture. Plasma urea and creatine were used as indicators of renal dysfunction and aspartate aminotransferase was used as an indicator of renal injury. Data were analyzed using ANOVA followed by Dunnett's post hoc test comparison.

[1] = system: middle cerebral artery occlusion; experiment: Middle cerebral artery occlusion model; assay type: in vivo, Sprague Dawley rats; settings: after MCAO; 2 μg/kg bw i.v. upon reperfusion, then three injections at 2-hour intervals; FIG. 5
Protocol: Sprague Dawley rats (8 per group) are subjected to the following MCAO protocol Surgery was performed in accordance with the teachings of Brines et al, 2000, PNAS USA 97:10526-10531 (hereby incorporated by reference in its entirety. Briefly, the rats are anesthetized with chloral hydrate (400 mg/kg-bw, i.p.), the carotid arteries were visualized, and the right carotid was occluded by two sutures and severed. A burr hole adjacent and rostral to the right orbit allowed visualization of the middle cerebral artery (“MCA”), which was cauterized distal to the rhinal artery. To produce a penumbra (border zone) surrounding this fixed MCA lesion, the contralateral carotid artery was occluded for 1 hour by using […] provided by a fine forceps and then re-opened.
The rats were administered saline, Peptide ID as a single i.v. dose (2 μg/kg bw), or Peptide IX, […], SEQ ID NO: 301), a scrambled version of Peptide IC, SEQ ID NO: 281, as a single Lv. dose (2 μg/kg bw) upon reperfusion, followed by three additional injections at 2-hour intervals. For assessment of injury, rats are subjected to behavioral testing or the volume of the lesion is determined by tetrazolium staining of brain sections performed 24 hours post surgery in accordance with the previously noted protocol.
The volume of the lesion was then determined by tetrazolium staining of brain sections performed 24 hours post surgery.
Rats were also tested in a foot fault behavioral protocol. Rats were tested on an elevated stainless steel grid floor 30 cm×30 cm with grid size of 30 mm according to the protocol of Markgraf et al., 1992, Brain Research 575:238-246 (hereby incorporated by reference in its entirety). When placed on the grid, a rat would attempt to move around and occasionally place a foot, rather than on the grid, through a grid opening (“foot fault”). The number of foot faults was measured for a 1 minute period.
The number of foot faults is indicative of the cognitive impairment of the rats due to the MCAO, the fewer the number of foot faults the less cognitive impairment.

pressure ulcer = experiment: Decubitus ulcer (pressure sore) assay; assay type: in vivo, Sprauge-Dawley rats; settings: 30 μg/kg sc daily; compared with all groups; FIG. 20
Protocol: A decubitus ulcer (pressure sore) assay was performed on 24 adult Sprauge-Dawley rats in accordance with the disclosure of Pierce et al., Selective A2A adenosine receptor activation reduces skin pressure ulcer formation and inflammation, Am J Physiol Heart Circ Physiol 281:67-74, 2001. Briefly, a ferromagnetic steel plate was implanted under a dorsal region of the rats skin. A rectangular permanent magnet was applied to the area of the skin under which the plate was implanted in order to compress the skin between the plate and the magnet. This compression reduced the flow of blood to the skin causing ischemia. The rats were subjected to a cycle of ischemia-reperfusion (2 hours ischemia with a 0.5 hour reperfusion) for a 72-hour period. […] Daily the area of the wound on each rat was measured for a period of 12 days.

9 L gliosarcoma cells = experiment: 9 L gliosarcoma implantation model, delayed treatment; assay type: in vivo, CD Fisher rats; settings: 25 nmole/kg i.p. daily starting two weeks after implantation, three weeks, FIG. 13, 14
Protocol: In accordance with the accordance with the protocol of Lampson et al. Cancer Res. 53:176-82:1993 described above, CD Fisher rats were implanted with 9 L gliosarcoma cells transfected with the LacZ gene by use of a Hamilton syringe. 100,000 cells in 10 microliters were injected into the right caudate.
ID with a short plasma half life, another receiving Peptide IW (pegylated form of Peptide IC) and the third group received saline. Peptides were given at a dose of 25 nmole/kg body weight. Three weeks later, the animals were sacrificed and serial 1 mm thick coronal sections cut through the brain and incubated with 5-bromo-4-chloro-3-indolyl-[beta]-D-galactopyranoside (Xgal). Tumor cells (containing the LacZ gene) metabolized Xgal into a dark blue stain, localizing the extent of tumor. High resolution digital images were obtained and the areas stained blue determined using planimetric methodology. Data is expressed as total area of tumor infiltration.

[2] = system: cisplatin induced neuropathy; experiment: Cisplatin induced peripheral neuropathy (hotplate latency); assay type: in vivo, rats; settings: CDDT 2 mg/kg i.p. twice a week; peptide 0.4 μg/kg three times a week for 5 weeks; FIG. 11
Protocol: Also, CDDT is known to induce peripheral neuropathy, among other toxicities. Following the experimental design described above for renal function, the ability of Peptide IC to protect against peripheral neuropathy was also evaluated. 2 mg/kg CDDT was administered intraperitoneally, twice a week for 5 weeks. Peptide IC was simultaneously administered at a dose of 0.4 μg/kg, three times a week for 5 weeks. Neuropathy was evaluated by hotplate latency, the delay period between contact of the rat's foot to a warm surface, and the retraction of the foot.

[3] = system: cisplatin-induced nephropathy; experiment: Cisplatin induced nephropathy; assay type: in vivo, rats; settings: CDDT 2 mg/kg i.p. twice a week; peptide 0.4 μg/kg three times a week for 5 weeks; FIG. 10
Protocol: Cancer chemotherapeutic agents such as cisplatin (CDDT) are known to induce renal injury among other toxicities. The ability of Peptide IC to protect rats form cisplatin-induced nephropathy was evaluated by administering 2 mg/kg CDDT intraperitoneally, twice a week for 5 weeks. Peptide IC was simultaneously administered at a dose of 0.4 μg/kg, three times a week for 5 weeks. Renal function was evaluated by measuring the volume of urine production.

GLpLSEARNQSEL [Peptide IY, reference compound]
anti-inflammatory activity (histamine; FIG. 18): did not exhibit anti-inflammatory activity
wheal area (lesion area) (histamine; FIG. 18): about 0.6 cm^2

GSWQRSLQDTE (Glucagon derived Peptide IH) [glucagon region]
creatinine, urea and aspartate aminotransferase (biochemical markers of renal dysfunction) (bilateral renal ischemia; multiple doses 1 μg/kg at 1 minute, 6 hours and 12 hours into reperfusion, FIG. 7): reduction in these biochemical markers of renal dysfunction
creatinine, urea and aspartate aminotransferase (biochemical markers of renal dysfunction) (bilateral renal ischemia; multiple doses 10 μg/kg at 1 minute, 6 hours and 12 hours into reperfusion, FIG. 7): reduction in these biochemical markers of renal dysfunction
creatinine, urea and aspartate aminotransferase (biochemical markers of renal dysfunction) (bilateral renal ischemia; single dose 1 μg/kg at 6 hours into reperfusion, 24 hrs of reperfusion, FIG. 6): reduction in these biochemical markers of renal dysfunction
creatinine, urea and aspartate aminotransferase (biochemical markers of renal dysfunction) (bilateral renal ischemia; single dose 10 μg/kg at 6 hours into reperfusion, 24 hrs of reperfusion, FIG. 6): reduction in these biochemical markers of renal dysfunction

LSEQARNQSEL [Peptide IX, scrambled version of Peptide IC; called Peptide JA in b476, reference compound]
wheal area (lesion area) (histamine; FIG. 19): about 0.6 cm^2
number of foot faults in 1 minute period [1]: 20.1±2.1 foot faults

NAIIKNAYKKG (Beta endorphin derived Peptide IG) [beta endorphin region]
wound (ulcer) size (area) (pressure ulcer): smallest wound size

PEG-QEQLERALNSS (XEQLERALNSS; PEG; Peptide IW) [pegylated form of Peptide IC, extended half-life peptide]
wheal area (lesion area) (histamine; FIG. 18): ~0.3 cm^2
tumor size (total area of tumor infiltration) (9 L gliosarcoma cells): marked reduction in tumor size; also recorded: exhibited the best outcomes; also recorded: reduction in size of the tumor equivalent to that achieved by immediate treatment with Peptide ID
tumor size (total area of tumor infiltration) (9 L gliosarcoma cells; listed as Peptide 1W): reduced the size of tumor

QEQLERALNSS (Helix B amino acids derived Peptide IC) [exterior-presenting amino acids of helix B of EPO]
hotplate latency (time to withdraw paw) [2]: prevented the appearance of peripheral neuropathy; also recorded: substantially similar to the control group (PBS)
volume of urine production (renal function) [3]: protected against renal dysfunction due to CDDT; also recorded: substantially like that of the control (PBS) group

SSNLARELQEQ ([dS][dS][dN][dL][dA][dR][dE][dL][dQ][dE][dQ]; also: retro-inverso) [Peptide IZ, Retro Inverso Peptide IC]
wheal area (lesion area) (histamine; FIG. 19): ~0.4 cm^2 and 0.35 cm^2
